Laboratory results taken from US10865216B2, “Tricyclic Gyrase inhibitors” (MERCK SHARP & DOHME CORP., priority 2012, dated 2020).
In brackets after ≈: the same amount, converted by molar mass. Read-outs that look alike come from different tables or passages of the source.

Tests used:
S. aureus ATCC 13709 = assay: MIC, S. aureus ATCC 13709; assay type: cell-based; conditions: for MIC: Staphylococcus aureus; for MIC Sa: S. aureus
E. coli ATCC 25922 = assay: MIC, E. coli ATCC 25922; assay type: cell-based; conditions: for MIC: Escherichia coli; for MIC Ec: E. coli
[1] = ATCC13709, Table 16, new R4 substituents, read-out: SA MIC
[2] = ATCC25922, Table 16, new R4 substituents, EC8 not defined, read-out: EC8 MIC
[3] = Alamar Blue read after overnight incubation at 35° C.
[4] = ATCC13709, S. aureus, Alamar Blue read after overnight incubation at 35° C., read-out: MIC Sa
[5] = ATCC25922, E. coli, Alamar Blue read after overnight incubation at 35° C., read-out: MIC Ec

| SMILES | MIC (S. aureus ATCC 13709; [1]) | MIC (E. coli ATCC 25922; [2]) | MIC Sa (S. aureus ATCC 13709; [3]) | MIC Ec (E. coli ATCC 25922; [3]) | other results |
| --- | --- | --- | --- | --- | --- |
| CNc1cc(F)cc2c1[nH]c1nc(Oc3cnc(C)nc3)nc(N3CCCC3=O)c12 | 1 µg/mL (≈ 2.45 µM) | > 16 µg/mL |  |  |  |
| CNc1cc(F)cc2c1[nH]c1nc(Oc3cnc(C)nc3)nc(-c3ccc(C4(N)CC4)cc3)c12 | ≤ 0.5 µg/mL | 4 µg/mL (≈ 8.78 µM) |  |  |  |
| CNc1cc(F)cc2c1[nH]c1nc(Oc3cnc(C)nc3)nc(N3CCC(N)(CN)C3)c12 (centres unmarked) | ≤ 0.5 µg/mL | 16 µg/mL (≈ 36.6 µM) |  |  |  |
| CNc1cc(F)cc2c1[nH]c1nc(Oc3cnc(C)nc3)nc(N3CCC(N)(C(F)(F)F)C3)c12 (centres unmarked) | ≤ 0.5 µg/mL | 1 µg/mL (≈ 2.1 µM) |  |  |  |
| CCC1(CN)CCN(c2nc(Oc3cnc(C)nc3)nc3[nH]c4c(NC)cc(F)cc4c23)C1 (centres unmarked) | ≤ 0.5 µg/mL | ≤ 0.5 µg/mL |  |  |  |
| CNc1cc(F)cc2c1[nH]c1nc(Oc3cnc(C)nc3)nc(N3CCC(C)(CN)C3)c12 (centres unmarked) | ≤ 0.5 µg/mL | ≤ 0.5 µg/mL |  |  |  |
| CNc1cc(F)cc2c1[nH]c1nc(Oc3cnc(C)nc3)nc(N3CC[C@@H](CN)C3)c12 | ≤ 0.5 µg/mL | ≤ 0.5 µg/mL |  |  |  |
| CNc1cc(F)cc2c1[nH]c1nc(Oc3cnc(C)nc3)nc(N3CC[C@H](CN)C3)c12 | ≤ 0.5 µg/mL | ≤ 0.5 µg/mL |  |  |  |
| CNc1cc(F)cc2c1[nH]c1nc(Oc3cnc(C)nc3)nc(NCCN)c12 | 4 µg/mL (≈ 10.5 µM) | 16 µg/mL (≈ 41.8 µM) |  |  |  |
| CNc1cc(F)cc2c1[nH]c1nc(Oc3cnc(C)nc3)nc(N3CCC[C@H]3CN)c12 | 1 µg/mL (≈ 2.37 µM) | 2 µg/mL (≈ 4.73 µM) |  |  |  |
| CNc1cc(F)cc2c1[nH]c1nc(Oc3cnc(C)nc3)nc(C3=CCNC3)c12 | ≤ 0.5 µg/mL | 8 µg/mL (≈ 20.4 µM) |  |  |  |
| CNc1cc(F)cc2c1[nH]c1nc(Oc3cnc(C)nc3)nc(N3CC(N)C(C(=O)O)C3)c12 (centres unmarked) | > 16 µg/mL | > 16 µg/mL |  |  |  |
| CCNc1cccc2c1[nH]c1nc(Sc3cnc4ccc[n+]([O-])c4c3)nc(N3CC4C(N)C4C3)c12 (centres unmarked) [Compound 1.10] |  |  |  |  | MIC (S. aureus ATCC 13709; [4]): ≤ 0.5 µg/mL; MIC (E. coli ATCC 25922; [5]): 4 µg/mL (≈ 8.25 µM) |
| CCNc1cccc2c1[nH]c1nc(Sc3cnc4cccnc4c3)nc(N3CC4C(N)C4C3)c12 (centres unmarked) [Compound 1.11] |  |  |  |  | MIC (S. aureus ATCC 13709; [4]): ≤ 0.5 µg/mL; MIC (E. coli ATCC 25922; [5]): 8 µg/mL (≈ 17.1 µM) |
| CNc1cccc2c1[nH]c1nc(Sc3cnc4cccnc4c3)nc(N3CC4C(N)C4C3)c12 (centres unmarked) [Compound 1.12] |  |  |  |  | MIC (S. aureus ATCC 13709; [4]): ≤ 0.5 µg/mL; MIC (E. coli ATCC 25922; [5]): 1 µg/mL (≈ 2.2 µM) |
| CNc1cccc2c1[nH]c1nc(Sc3cnc4ccc[n+]([O-])c4c3)nc(N3CC[C@H](N)C3)c12 [Compound 1.14] |  |  |  |  | MIC (S. aureus ATCC 13709; [4]): ≤ 0.5 µg/mL; MIC (E. coli ATCC 25922; [5]): 1 µg/mL (≈ 2.18 µM) |

Continued, in another order:

| MIC (S. aureus ATCC 13709; [1]) | MIC (E. coli ATCC 25922; [2]) | MIC Sa (S. aureus ATCC 13709; [3]) | MIC Ec (E. coli ATCC 25922; [3]) | SMILES | other results |
| --- | --- | --- | --- | --- | --- |
|  |  | 32 µg/mL (≈ 60.5 µM) | >64 µg/mL | NC1CN(c2nc(Sc3cnc4ccc[n+]([O-])c4c3)nc3[nH]c4c(NC5CC5)cc(F)cc4c23)CC12CC2 (centres unmarked) [Compound 1.02] |  |
|  |  | 32 µg/mL (≈ 67.2 µM) | >64 µg/mL | NC1C2CN(c3nc(Sc4cnc5ccc[n+]([O-])c5c4)nc4[nH]c5c(Cl)cccc5c34)CC12 (centres unmarked) [Compound 1.03] |  |
|  |  | 32 µg/mL (≈ 69 µM) | 64 µg/mL (≈ 138 µM) | N[C@@H]1CCN(c2nc(Sc3cnc4ccc[n+]([O-])c4c3)nc3[nH]c4c(Cl)cccc4c23)C1 [Compound 1.04] |  |
|  |  | >64 µg/mL | >64 µg/mL | NC1CN(c2nc(Sc3cnc4nccnc4c3)nc3[nH]c4ccccc4c23)C1 [Compound 1.05] |  |
|  |  | 32 µg/mL (≈ 77.2 µM) | >64 µg/mL | NC1CCN(c2nc(Sc3cnc4nccnc4c3)nc3[nH]c4ccccc4c23)C1 (centres unmarked) [Compound 1.06] |  |
|  |  | 4 µg/mL (≈ 9.08 µM) | >32 µg/mL | Cc1cccc2c1[nH]c1nc(Sc3cnc4nccnc4c3)nc(N3CC4C(N)C4C3)c12 (centres unmarked) [Compound 1.07] |  |
|  |  | 64 µg/mL (≈ 140 µM) | >64 µg/mL | Nc1cccc2c1[nH]c1nc(Sc3cnc4ccc[n+]([O-])c4c3)nc(N3CC4C(N)C4C3)c12 (centres unmarked) [Compound 1.08] |  |
|  |  | 64 µg/mL (≈ 145 µM) | >64 µg/mL | Nc1cccc2c1[nH]c1nc(Sc3cnc4cccnc4c3)nc(N3CC4C(N)C4C3)c12 (centres unmarked) [Compound 1.09] |  |
|  |  | ≤0.5 µg/mL |  | CNc1cccc2c1[nH]c1nc(Sc3cnc4ccc[n+]([O-])c4c3)nc(N3CC4C(N)C4C3)c12 (centres unmarked) [Compound 1.13] | MIC (E. coli ATCC 25922; [5]): ≤ 0.5 µg/mL |
